The test system of this data set is Yap1 mRNA. The experiment in a line: Antisense inhibition of human Yap1 in A-431 cells by cEt gapmers, single dose (Example 2, RTS4814). In kind it is cell-based. The essentials: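 A-431 cells (5,000/well) received 2,000 nM oligonucleotide by free uptake for about 48 h. Yap1 mRNA was then quantified by RT-qPCR with primer probe set RTS4814, normalized to RIBOGREEN total RNA, and reported as % of untreated control; asterisked values mark oligos inside the amplicon.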

Setting [1] is: Table 18, A-431 cells, 5,000 cells per well, free uptake, 2,000 nM modified oligonucleotide, approx. 48 hours, RTS4814, normalized to RIBOGREEN, Yap1 mRNA as percent of untreated control.
[2] abbreviates: Table 20, Yap1 mRNA, percent of untreated control, 3-10-3 cEt gapmers targeting SEQ ID NO.: 1 and 2.
Where [3] appears, read: Yap1 mRNA as percent of untreated control, A-431 cells, 3-10-3 cEt gapmers targeting SEQ ID NO.: 1, and 2, Table 31.
Where [4] appears, read: Table 5, A-431 cells, 5,000 cells per well, free uptake, 2,000 nM modified oligonucleotide, approx. 48 hours, RTS4814, normalized to RIBOGREEN, Yap1 mRNA relative to untreated control cells.
Where [5] appears, read: Yap1 mRNA as percent of untreated control, A-431 cells, 3-10-3 cEt gapmers targeting SEQ ID NO.: 1, and 2, Table 30.
The mark [6] stands for this setting: Table 19, A-431 cells, 5,000 cells per well, free uptake, 2,000 nM modified oligonucleotide, approx. 48 hours, RTS4814, normalized to RIBOGREEN, Yap1 mRNA as percent of untreated control.
The mark [7] stands for this setting: Table 33, Yap1 mRNA, percent of untreated control, 3-10-3 cEt gapmers targeting SEQ ID NO.: 1, and 2.
[8] abbreviates: Table 21, Yap1 mRNA, percent of untreated control, 3-10-3 cEt gapmers targeting SEQ ID NO.: 1 and 2.
Setting [9] is: Table 24, Yap1 mRNA as percent of untreated control, 3-10-3 cEt gapmers targeting SEQ ID NO.: 1, and 2.
The mark [10] stands for this setting: Table 23, Yap1 mRNA as percent of untreated control, 3-10-3 cEt gapmers, single dose.
Setting [11] is: Table 6, A-431 cells, 5,000 cells per well, free uptake, 2,000 nM modified oligonucleotide, approx. 48 hours, RTS4814, normalized to RIBOGREEN, Yap1 mRNA relative to untreated control cells.
Setting [12] is: A-431 cells, 5,000 cells per well, free uptake, 2,000 nM modified oligonucleotide, approx. 48 hours, RTS4814, normalized to RIBOGREEN, Table 4, asterisk (*) = targets amplicon region of primer probe set.

Marks after values point to notes of the source that are not given here. Strand notation (5' to 3'): a small letter for the sugar, then the base; units joined by * are phosphorothioate-linked, units joined directly phosphodiester-linked; [ ] holds rarer units or linkages, { } end groups; capitals alone tell only the bases. k = constrained ethyl (cEt); [5mC] = 5-methylcytosine; d = 2'-deoxy (DNA)

With “1075844 (kT*kA*kT*dT*dA*dA*dA*dT*dA*dA*dG*dA*dG*k[5mC]*kT*k[5mC]; antisense) [Compound 1075844]”, the “YAP1 (% UTC)” value under setting [1] stood at 84 % UTC.
For “1075174 (antisense k[5mC]*k[5mC]*kT*dG*dA*dA*dA*dA*dG*dA*d[5mC]*dA*dG*kT*k[5mC]*k[5mC]) [Compound 1075174]”, under setting [2], the “YAP1 (% UTC)” value worked out at 74 % UTC.
Consider “1075858 (antisense k[5mC]*k[5mC]*kT*dT*dA*dA*dA*d[5mC]*dA*dA*dT*d[5mC]*d[5mC]*k[5mC]*kT*kA) [compound 1075858]”, for which the “YAP1 (% UTC)” value (Table 32, Yap1 mRNA, percent of untreated control, 3-10-3 cEt gapmers targeting SEQ ID NO.: 1, and 2) came to 23 % UTC.
Consider “1075281 (antisense k[5mC]*kA*kG*d[5mC]*dA*dA*dA*dA*dG*dT*dA*d[5mC]*d[5mC]*kA*kT*kG) [compound 1075281]”, for which, under setting [3], the “YAP1 (% UTC)” value is reported as 36 % UTC.
“716389 (kA*kG*k[5mC]*d[5mC]*dT*dT*dG*dG*dG*dT*d[5mC]*dT*dA*kG*k[5mC]*k[5mC]; antisense) [Compound 716389]”: under setting [4], the “YAP1 (% UTC)” value is reported as 93 % UTC.
“1075152 (kT*kA*kT*dA*dA*dT*dG*dG*dG*dA*dG*dG*dA*kT*kT*kA; antisense) [compound 1075152]”: the “YAP1 (% UTC)” value under setting [5] is on record as 99 % UTC.
“1074405 (antisense kG*k[5mC]*k[5mC]*dT*dG*dA*dA*dA*dA*d[5mC]*dT*dG*d[5mC]*kA*kA*k[5mC]) [Compound 1074405]”: the “YAP1 (% UTC)” value under setting [6] was 27 % UTC.
For “1074355 (antisense kA*kG*kG*dG*dA*d[5mC]*dA*d[5mC]*dT*dG*dT*dA*dG*k[5mC]*kT*kG) [compound 1074355]”, the “YAP1 (% UTC)” value under setting [7] worked out at 55 % UTC.
In the case of “1074983 (antisense k[5mC]*kA*k[5mC]*d[5mC]*dT*dT*dT*dT*dA*dT*dT*dG*d[5mC]*k[5mC]*kA*kG) [Compound 1074983]”, the “YAP1 (% UTC)” value under setting [8] was determined as 11 % UTC.
As for “1076550 (antisense kT*kA*k[5mC]*d[5mC]*dA*dA*d[5mC]*d[5mC]*dT*dG*dT*dA*dT*k[5mC]*k[5mC]*kA) [Compound 1076550]”, the “YAP1 (% UTC)” value under setting [2] is recorded as 61 % UTC.
Take “1075856 (antisense k[5mC]*k[5mC]*kT*dA*dA*dT*d[5mC]*dA*dA*dG*dT*dT*d[5mC]*kT*kG*k[5mC]) [compound 1075856]”: the “YAP1 (% UTC)” value under setting [5] is 40 % UTC.
Take “1075891 (antisense kA*kG*kA*dT*dT*dA*dA*dA*dA*dG*dT*dA*dG*kG*k[5mC]*k[5mC]) [compound 1075891]”: the “YAP1 (% UTC)” value under setting [7] stood at 89 % UTC.
Take “1075236 (antisense kT*kA*kT*dA*dA*dT*dA*d[5mC]*d[5mC]*dA*d[5mC]*dA*dA*kA*kG*kT) [Compound 1075236]”: under setting [1], the “YAP1 (% UTC)” value is listed as 81 % UTC.
Consider “1074954 (antisense k[5mC]*k[5mC]*kG*dG*dG*dT*dT*dT*dT*dT*dG*dT*d[5mC]*kA*kT*k[5mC]) [Compound 1074954]”, for which the “YAP1 (% UTC)” value under setting [9] was determined as 91 % UTC.
With “1074409 (antisense kG*kG*kA*dT*dT*dA*dA*dA*dG*dT*dA*dT*d[5mC]*kT*kT*kG) [Compound 1074409]”, the “YAP1 (% UTC)” value under setting [10] was found to be 6 % UTC.
In the case of “1074437 (kA*k[5mC]*kA*dT*dG*dA*dA*dG*d[5mC]*dA*dT*d[5mC]*dT*kG*kA*k[5mC]; antisense) [Compound 1074437]”, under setting [6], the “YAP1 (% UTC)” value is recorded as 4* % UTC.
On to “716557 (kA*kT*kT*dG*dG*dT*dA*d[5mC]*dT*dA*dT*dA*dT*kA*kT*kA; antisense) [Compound 716557]”, for which the “YAP1 (% UTC)” value under setting [4] is reported as 80 % UTC.
In the case of “1074661 (antisense kG*kA*kA*dT*dT*dT*d[5mC]*dA*dT*dT*dA*d[5mC]*dT*kA*k[5mC]*kT) [Compound 1074661]”, under setting [6], the “YAP1 (% UTC)” value came to 36 % UTC.
As to “1074343 (antisense kA*kG*kA*d[5mC]*dA*dT*d[5mC]*d[5mC]*d[5mC]*dG*dG*dG*dA*kG*kA*kA) [Compound 1074343]”, under setting [8], the “YAP1 (% UTC)” value is listed as 18 % UTC.
For “716426 (kT*kT*kT*dG*dA*dT*dT*d[5mC]*dT*dT*dT*dA*dG*kA*kG*k[5mC]; antisense) [Compound 716426]”, the “YAP1 (% UTC)” value under setting [11] is on record as 45 % UTC.
With “1074276 (antisense k[5mC]*k[5mC]*kA*dA*dG*dA*dG*dG*dT*dG*dG*dT*d[5mC]*kT*kT*kG) [Compound 1074276]”, the “YAP1 (% UTC)” value under setting [1] is 87 % UTC.
Regarding “1074468 (k[5mC]*k[5mC]*kA*d[5mC]*d[5mC]*dG*dA*d[5mC]*d[5mC]*d[5mC]*dT*dG*d[5mC]*k[5mC]*kA*kA; antisense) [Compound 1074468]”, the “YAP1 (% UTC)” value under setting [1] worked out at 34 % UTC.
Take “1075600 (antisense k[5mC]*kA*k[5mC]*dT*dA*dT*dA*dA*dT*d[5mC]*dT*dG*dA*k[5mC]*k[5mC]*k[5mC]) [compound 1075600]”: under setting [5], the “YAP1 (% UTC)” value worked out at 68 % UTC.
Consider “716442 (kG*k[5mC]*kA*d[5mC]*dT*dA*dG*dG*dA*dG*dG*dA*dA*kA*kA*kG; antisense) [Compound 716442]”, for which the “YAP1 (% UTC)” value under setting [12] was found to be 63 % UTC.
For the substance “1075145 (antisense kT*k[5mC]*k[5mC]*d[5mC]*dA*dA*dA*dA*dG*dG*dA*dG*dT*kA*kG*k[5mC]) [Compound 1075145]”, under setting [10], the “YAP1 (% UTC)” value was determined as 58 % UTC.
On to “1074640 (antisense kG*k[5mC]*k[5mC]*dA*dA*dA*dA*dT*dA*d[5mC]*dT*dT*dA*kG*kA*kT) [compound 1074640]”, for which the “YAP1 (% UTC)” value under setting [5] was 26 % UTC.
Regarding “716458 (kA*kA*kG*d[5mC]*dA*dG*dG*dG*dA*dA*dA*d[5mC]*d[5mC]*kT*kA*kA; antisense) [Compound 716458]”, under setting [4], the “YAP1 (% UTC)” value is on record as 94 % UTC.
With “1076357 (kT*k[5mC]*k[5mC]*dA*dA*dA*dA*dA*d[5mC]*dT*dT*d[5mC]*dT*kT*kA*kG; antisense) [Compound 1076357]”, the “YAP1 (% UTC)” value under setting [6] came to 22 % UTC.
“1074257 (antisense kG*k[5mC]*kA*d[5mC]*dT*dG*dG*dT*dG*dG*dA*d[5mC]*dT*kG*kG*kT) [compound 1074257]”: the “YAP1 (% UTC)” value under setting [3] amounted to 29 % UTC.
“1074855 (antisense kG*kT*kG*d[5mC]*dA*dT*dT*dA*dA*dA*dG*dA*dA*kT*kT*k[5mC]) [Compound 1074855]”: the “YAP1 (% UTC)” value under setting [8] is recorded as 29 % UTC.
Consider “1074916 (antisense kA*kA*kG*dT*dT*dA*d[5mC]*dA*dT*d[5mC]*d[5mC]*d[5mC]*dG*kA*kG*kT) [Compound 1074916]”, for which, under setting [1], the “YAP1 (% UTC)” value was found to be 75 % UTC.
In the case of “716554 (kA*kT*kG*d[5mC]*dT*dT*dG*d[5mC]*dG*dA*dG*dG*dA*kT*kA*kA; antisense) [Compound 716554]”, the “YAP1 (% UTC)” value under setting [4] turned out to be 30 % UTC.
On to “716430 (kT*kA*kA*d[5mC]*dT*dG*dG*dG*d[5mC]*dA*dA*dA*dA*kG*kG*kA; antisense) [Compound 716430]”, for which the “YAP1 (% UTC)” value under setting [12] amounted to 28 % UTC.
Turning to “1076208 (kG*kA*kG*dG*dA*dA*dT*dA*dT*dT*dA*d[5mC]*dA*kG*kA*k[5mC]; antisense) [compound 1076208]”, under setting [5], the “YAP1 (% UTC)” value is recorded as 15 % UTC.
For “1075749 (kA*kA*kT*dT*dA*dT*dG*dA*dA*dT*dG*dA*dT*kG*kG*kG; antisense) [Compound 1075749]”, under setting [6], the “YAP1 (% UTC)” value is recorded as 4 % UTC.
With “716507 (antisense kA*k[5mC]*kT*dA*d[5mC]*dT*d[5mC]*dT*dA*dA*dA*dA*d[5mC]*kT*k[5mC]*k[5mC]) [Compound 716507]”, the “YAP1 (% UTC)” value under setting [11] turned out to be 53 % UTC.
Same read-out and setting: to “716393 (kT*kT*kG*d[5mC]*dT*dG*d[5mC]*dT*dG*dG*dT*dT*dG*kG*kA*kG; antisense) [Compound 716393]” belongs 46 % UTC.
With “716502 (k[5mC]*kA*k[5mC]*dA*dG*dT*dG*dA*dT*dT*dG*d[5mC]*dA*kT*kT*kT; antisense) [Compound 716502]”, the “YAP1 (% UTC)” value under setting [12] was 11 % UTC.
“1076202 (kT*k[5mC]*kT*dA*dA*dA*dA*dA*dG*dA*d[5mC]*dA*dG*kG*kG*k[5mC]; antisense) [Compound 1076202]”: the “YAP1 (% UTC)” value under setting [9] amounted to 32 % UTC.
For “1074219 (antisense kA*kG*kT*d[5mC]*dA*dG*dG*dG*d[5mC]*dT*d[5mC]*d[5mC]*dT*kG*k[5mC]*kA) [Compound 1074219]”, under “Table 25, Yap1 mRNA as percent of untreated control, 3-10-3 cEt gapmers targeting SEQ ID NO.: 1, and 2”, the “YAP1 (% UTC)” value is listed as 30 % UTC.
Regarding “1076392 (kT*kA*kT*dT*dA*dA*dT*d[5mC]*dA*dA*dA*dT*dA*kG*kG*kG; antisense) [Compound 1076392]”, the “YAP1 (% UTC)” value (Table 22, Yap1 mRNA as percent of untreated control, 3-10-3 cEt gapmers, single dose) was determined as 64 % UTC.
“1074758 (k[5mC]*kA*kG*dT*dT*dA*dA*dG*d[5mC]*dA*d[5mC]*dT*dT*kT*kT*kA; antisense) [Compound 1074758]”: the “YAP1 (% UTC)” value under setting [2] is 4 % UTC.

These data come from patent US11214803B2, “Modulators of YAP1 expression” (Ionis Pharmaceuticals, Inc., priority 2019, dated 2022).
